According to patent publication US9546367B2, “siRNA compositions and methods for inhibiting gene expression in tumor initiating cells of breast cancer” (priority 2011, dated 2017):

Columns and labels:
MDAMB231 = assay: in vitro MSFE with packaged siRNA; type: cell-based, human; conditions: Day 8, p<0.05
Excerpt: FIG. 7A, FIG. 7B, and FIG. 7C show confirmation of BCSC target genes and comparison of changes in mammosphere formation efficiency. […] Data analyzed by one-way ANOVA and plotted as mean±SEM for n=6 replicates; *p<0.05;
The siRNA sequences of two candidate genes RPL39 and MLF2 were packaged in nanoliposomes and the effects on MSFE determined in vitro, as described above, using packaged siRNA instead of lentiviral shRNA.

SUM159 xenografts = assay: short-term in vivo siRNA (multistage particle) treatment, SUM159 xenograft; set-up: species or system SCID-Beige mice; conditions: for tumor volume: SUM159; for secondary MSFE: SUM159 xenograft cells, tumors collected after two weeks; for Aldefluor levels: SUM159 xenografts, reduction not statistically significant
Procedure: FIG. 9A, FIG. 9B, FIG. 9C, and FIG. 9D show short-term, in vivo treatment in siRNA SUM159 xenografts. Triple-negative breast cancer cell line SUM159 was injected into the mammary fat pad of SCID beige mice (n=9). These tumors were randomized into six groups: 1) vehicle+scrambled siRNA (15 μg, i.v.); 2) vehicle+RPL39 siRNA 15 μg (i.v.); 3) vehicle+MLF2 siRNA (15 μg (i.v.); 4) docetaxel (20 mg/kg, i.p.)+scrambled siRNA 15 μg (i.v.): 5) docetaxel (20 mg/kg, i.p.)+RPL39 siRNA 15 ltg (i.v.), and 6) docetaxel (20 mg/kg, i.p.)+MLF2 siRNA 15 μg (i.v.). […] Data were analyzed by one-way ANOVA, and plotted as mean±SEM for n=9 replicates; *p<0.05;
The effect of MLF2 and RPL39 using siRNA packaged in multistage nanoparticles in two different triple negative models were studied. SUM159 and a patient-derived human cancer xenograft (BCM2665) from a primary human breast cancer transplanted in SCID-Beige mice, the test group had 54 mice per xenograft line, and 9 mice per treatment arm. When tumor sizes reached 150 to 300 mm^3, mice were divided into six groups: (1) vehicle-treated, (2) chemotherapy on day 0 with one dose of docetaxel 20 mg/kg by intraperitoneal (i.p.) injection. (3) siRNA against MLF2 packaged in nanoparticles (single injection intravenous (i.v.) on Day 1), (4) combination treatment with docetaxel (20 mg/kg i.p. on Day 1) and siRNA against MLF2 (single injection i.v. on Day 1), (5) siRNA against RPL39 packaged in nanoparticles (single injection i.v. on Day 1), and (6) combination treatment with docetaxel (20 mg/kg i.p. on Day 1) and siRNA against inhibitor […] (single injection iv. on Day 1). The same dose (15 μg siRNA) was used in all experiments. Animals were sacrificed on Day 14. The tumors were harvested and analyzed for downstream effects on BCSC self-renewal using FACS analysis, and MSFE.
The fraction of BCSCs in the xenograft tumors from the six treatment groups were processed by mincing and digesting the tumors using collagenase type III, for 3 hrs at 37° C. in order to dissociate the tumors into single cells. Changes in CD44+/CD24/Lin− and Aldefluor® were analyzed as described previously (Li et al., 2008). Briefly, cells were stained with primary antibodies antiCD44 labeled APC (dilution 1:10. BD Biosciences), anti-CD24-labeled FITC (dilution 1:10, BD Biosciences), and additionally with H2KD-labeled PE to eliminate all mouse, lineage-positive cells. The cells were incubated in HBSS (Hanks Balanced Salt Solution, GIBCO) for 15 min on ice with 2% FBS for the antibodies and 45 min for Aldefluor® reagent. Following incubation, cells were washed once with HBSS and re-suspended in HBSS supplemented with 2% FBS. […] (PI) was added to the cells for live/dead gating prior to FACS analysis.
Mammosphere formation efficiency, the in vitro assay for stem cell self-renewal, was performed as described previously (Dontu et al., 2003; Dontu et al., 2005; Li et al., 2008). Single cells were plated in ultra-low attachment plates (Corning, Acton, Mass., USA) at the density 40,000 viable cells/mL for BCM2665 in primary culture, and at the density 10,000 viable cells/mL in secondary culture. For mammosphere culture, cells were grown in serum-free mammary epithelial basal medium (MEGM) (Lonza, Inc.) supplemented with B27 (Invitrogen), 20 ng/mL EGF (BD Biosciences), and 1% heparin (Sigma Chemical Co.) in a humidified incubator ([…]: 95% air, 37° C. for 14 days, as previously described (Li et al., 2008).

[1] = tested on: MDAMB231 tumor xenografts; assay: long-term in vivo siRNA treatment of MDAMB231 xenografts; set-up: species or system SCID-Beige mice; conditions: p<0.05; for median survival: siRNA with chemotherapy (docetaxel) over chemotherapy alone
Procedure: FIG. 8A, FIG. 8B, and […] show long-term, in vivo treatment in siRNA MDAMB231 xenografts. Triple-negative breast cancer cell line, MDAMB231 was injected into the mammary fat pad of SCID beige mice (n=9). These tumors were randomized into six groups: vehicle+scrambled siRNA, vehicle+RPL39 siRNA, vehicle 4 MLF2 siRNA, docetaxel (20 mg/kg, i.p.)+scrambled siRNA, docetaxel (20 mg/kg, i.p.)+RPL39 siRNA, docetaxel (20 mg/kg, i.p.)+MLF2 siRNA. Tumor volume was measured twice weekly and reported as tumor volume fold-change over time.
Long-term in vivo treatment efficacy studies: three million cells MDAMB231 cancer cells, which grow primary as well as metastatic tumors, were injected in the mammary fat pad of SCID-Beige mice and allowed them to grow to 150-300 mm^3 tumors, and randomized them into 6 groups: (1) vehicle+scrambled siRNA. (2) vehicle+MLF2 siRNA. (3) vehicle+RPL39 siRNA, (4) docetaxel (20 mg/kg)+scrambled siRNA, (5) docetaxel (20 mg/kg)+MLF2 siRNA, and (6) docetaxel (20 mg/kg)+RPL39 siRNA. Each injection was loaded with 15 μg of siRNA per animal. These groups received three cycles of treatment every 14 days apart starting at Day 0, and cationic liposome packaged siRNA was administered through tail vein injection thrice weekly.
In the shRNA knockdown experiments, the mean and standard deviation of all measurements from every replicated experiment of each plate were estimated. The Z-score was calculated by subtracting […] and dividing the difference by standard deviation. […] Different treatment groups were compared by one-way ANOVA to determine statistical significance in the confirmatory shRNA, nanoliposome siRNA, and tumor volume fold-change experiments. This was followed by Tukey analysis for a pairwise comparison of the different treatment groups. In the tumor recurrence studies, events were defined as first appearance of tumor >50 mm^3 after completion of treatment. Time to recurrence was derived by the Kaplan-Meier method, with differences compared using the generalized Mann-Whitney-Wilcoxon rank-sum test.

[2] = siRNA alone (15 μg i.v., MSV) vs vehicle
[3] = siRNA+chemotherapy vs standard-dose docetaxel (20 mg/kg)
[4] = siRNA alone (15 μg per injection) vs vehicle treated groups
[5] = siRNA in combination with docetaxel (20 mg/kg)

Substance | secondary MSFE (MDAMB231) | tumor volume (SUM159 xenografts; [2]) | tumor volume (SUM159 xenografts; [3]) | secondary MSFE (SUM159 xenografts) | Aldefluor levels (SUM159 xenografts) | tumor volume [1, 4] | tumor volume [1, 5] | median survival [1]
MLF2 siRNA: siRNA against myeloid leukemia factor 2; sense SEQ ID NO: 3 CCCTGATGGATCCCTTTGCTAT, antisense SEQ ID NO: 19 ATAGCAAAGGGATCCATCAGGA (packaged in nanoliposomes, chemistry not given here, further chemistry not given here) | significantly reduced | Significant reduction | Similarly, observations were obtained | Significant decrease | reduction | Significant reduction | significantly reduced | significantly prolonged
RPL39 siRNA: siRNA against ribosomal protein L39-like; sense SEQ ID NO: 15 ACGATTCCTGGCCAAGAAACAA, antisense SEQ ID NO: 31 TTGTTTCTTGGCCAGGAATCGC (listed as DNA, chemistry not fully specified) | significantly reduced | Significant reduction | Similarly, observations were obtained | Significant decrease | reduction | Significant reduction | significantly reduced | significantly prolonged
